Laboratory results taken from PMC3511009, “Modulating the activity of short arginine-tryptophan containing antibacterial peptides with N-terminal metallocenoyl groups” (Beilstein Journal of Organic Chemistry, 2012).
Values after ≈ are worked out from the molar mass of the structure shown. Like-named read-outs stand apart in the source and are kept apart here. Square brackets hold non-standard residues; d marks the D form. Peptide text beside a SMILES is read from it. * marks the point of attachment. X1 = O=C([C]12[CH]3[CH]4[CH]5[CH]1[Ru]45321678[CH]2[CH]1[CH]6[CH]7[CH]28)*

Legend:
[1] = test system: Escherichia coli DSM 30083
Procedure: (§1) The antibacterial activity of the peptides was first assessed by determining their minimum inhibitory concentration (MIC) value. This MIC value represents the lowest concentration of the antibacterial agent that is needed to hinder the growth of the bacteria. For this, six standard bacterial strains – among them three Gram-negative and three Gram-positive pathogens – were incubated with increasing concentrations of the antibacterial peptide (Table 2). In order to put the activities of these RW-based synAMPs and their organometallic conjugates into perspective, two reference peptides were included, i.e., membrane-targeting gramicidin S derivative GS(K2Y2) and cell wall precursor lipid II-targeting vancomycin.
(§2) The minimal inhibitory concentrations (MIC) were tested against Escherichia coli DSM 30083, Acinetobacter baumannii DSM 30007, Pseudomonas aeruginosa DSM 50071, Bacillus subtilis DSM 402, Staphylococcus aureus DSM 20231 (type strain), and Staphylococcus aureus ATCC 43300 (MRSA) in a microtiter plate assay according to CLSI guidelines. E. coli, A. baumannii, S. aureus, and B. subtilis were grown in Mueller–Hinton (MH) broth, P. aeruginosa in cation adjusted Mueller–Hinton II. […] Serial dilution in culture media was carried out automatically with the Tecan Freedom Evo 75 liquid handling workstation (Tecan, Männedorf, Switzerland) from 512 to 0.5 µg/mL. Peptide dilutions were inoculated with 10^5 bacteria/mL taken from late exponential cultures grown in the same media in a total volume of 200 µL per well. Cells were incubated for 16 h at 37 °C. The lowest peptide concentration inhibiting visible bacterial growth was taken as MIC.
(§3) Cells were grown in DMEM until late exponential phase before using them for inoculation. Peptide concentrations, inoculation and incubation were performed as described above.

[2] = test system: Acinetobacter baumannii DSM 30007; assay: microbe, parasite or virus in culture
Procedure: as §1, §2, §3

[3] = test system: Staphylococcus aureus ATCC 43300 (MRSA); assay: microbe, parasite or virus in culture
Procedure: as §1, §2, §3

[4] = test system: Staphylococcus aureus DSM 20231 (type strain); assay: microbe, parasite or virus in culture
Procedure: as §1, §2, §3

[5] = test system: Pseudomonas aeruginosa DSM 50071; assay: MIC, microtiter plate assay (CLSI); format: cell-based; conditions: for Minimum inhibitory concentration, P. aeruginosa: title: in the cell culture medium, CLSI guidelines, µM calculated with one TFA counterion per basic residue
Procedure: as §1, §2, §3

[6] = test system: Bacillus subtilis DSM 402; assay: microbe, parasite or virus in culture; conditions: for Minimum inhibitory concentration, B. subtilis: DSM 402, 16 h
Procedure: as §1, §2, §3

Hemolytic activity = format: cell-based, human; conditions: human, at 263 µg/mL (192 µM); 50% DMSO/PBS; relative to Triton X-100; read-out: hemolysis of hRBCs
Procedure: (§4) Although an HC50 value was reported for (RW)3 [53], neither the D-amino acid peptide nor the organometallic derivatized peptides were studied with respect to their hemolytic capacity. Therefore, all peptides were tested in parallel to obtain HC50 values under identical conditions.
(§5) After drawing whole blood into anticoagulant containing tubes (BD Vacutainer®, K2 EDTA 3.6 mg, Ref 368841, Lot 1248213), its fractionation was executed with one volume whole blood added to nine volumes sterile 0.9% NaCl and centrifugation (800g, 10 min, 4 °C). Subsequently, the lowest fraction containing all hRBCs was washed twice with nine volumes 1 × PBS (PAA), triturating carefully. The concentrated hRBCs were re-suspended with 1 × PBS to an erythrocyte concentration of 5% (v/v). Wells of a 96-well plate were filled with 100 µL of the appropriate peptide solutions: The peptides were dissolved in 1 × PBS and DMSO (5% for (RW)3 and 50% for RcCO-W(RW)2). These were mixed with 100 µL of the 5% hRBCs solution and incubated under agitation on a flat shaker (170 rpm, 30 min, 37 °C). […] The release of hemoglobin was monitored by measuring the absorbance of the supernatant at 550 nm using an automated 96-well plate reader. […] Toxicity on human cancer cell lines was determined according to previously described procedures.

M. luteus = assay: MIC in half-concentrated MH broth, polypropylene plates; format: cell-based; conditions: 18 h
Procedure: (§6) Determination of MIC values was performed in 96-well polypropylene microtiter plates (Life Technologies) in order to reduce the AMP binding. A series of 2-fold dilutions of the peptides was prepared directly in the plate in half-concentrated MH broth. The tested strains were grown to an optical density (600 nm) of 0.5 in half-concentrated MH broth and diluted 1:10^5 using the same medium. Then, 100 µL of this suspension was mixed with 100 µL of the peptide solution already prepared in the wells of the microtiter plate as mentioned earlier. […] The results given are mean values of three or more independent determinations.

S. aureus (133) = assay: as above; format: cell-based; conditions: 133, 18 h
Procedure: as §6

[7] = test system: human red blood cells (hRBCs); assay: Hemolytic activity; format: cell-based
Procedure: as §4, §5

[8] = test system: human breast adenocarcinoma (MCF7); format: cell-based
Procedure: (§7) Finally, to determine whether the peptides are selective for bacterial cells, we tested the toxicity against mammalian cells using three malignant cell lines: human liver carcinoma (HepG2), human colon adenocarcinoma grade II (HT29) and human breast adenocarcinoma (MCF7) cell lines (Table 5).
(§8) After drawing whole blood into anticoagulant containing tubes (BD Vacutainer®, K2 EDTA 3.6 mg, Ref 368841, Lot 1248213), its fractionation was executed with one volume whole blood added to nine volumes sterile 0.9% NaCl and centrifugation (800g, 10 min, 4 °C). Subsequently, the lowest fraction containing all hRBCs was washed twice with nine volumes 1 × PBS (PAA), triturating carefully. The concentrated hRBCs were re-suspended with 1 × PBS to an erythrocyte concentration of 5% (v/v). Wells of a 96-well plate were filled with 100 µL of the appropriate peptide solutions: The peptides were dissolved in 1 × PBS and DMSO (5% for (RW)3 and 50% for RcCO-W(RW)2). These were mixed with 100 µL of the 5% hRBCs solution and incubated under agitation on a flat shaker (170 rpm, 30 min, 37 °C). After sedimenting all probes under centrifugation (800g, 10 min, 4 °C), all supernatants were transferred into a clean 96-well plate. The release of hemoglobin was monitored by measuring the absorbance of the supernatant at 550 nm using an automated 96-well plate reader. Controls for 0 and 100% hemolysis consisted of hRBC 5% (v/v) suspended in PBS containing DMSO in appropriate concentrations and 1% Triton X-100, respectively. Toxicity on human cancer cell lines was determined according to previously described procedures.

[9] = test system: human colon adenocarcinoma grade II (HT29); format: cell-based
Procedure: as §7, §8

[10] = test system: human liver carcinoma (HepG2); format: cell-based
Procedure: as §7, §8

[11] = test system: three human cancer cell lines (HepG2, HT29, MCF7)
Procedure: Toxicity on human cancer cell lines was determined according to previously described procedures [67–68].

[12] = test system: human red blood cells (hRBCs); conditions: cited from earlier work
[13] = title: in the cell culture medium, CLSI guidelines, µM calculated with one TFA counterion per basic residue
[14] = value outside brackets, title: in the cell culture medium

FcCO-RWRWRW-NH2 [FcCO-(RW)3]
Minimum inhibitory concentration, E. coli [1, 13]: 20 µM

H-KWKWKW-NH2 [(KW)3]
Minimum inhibitory concentration, E. coli [1, 13]: n.a. (‘n.a.’ means ‘not active’ (MIC > 100 μM)) | Minimum inhibitory concentration, A. baumannii [2, 13]: n.a. (‘n.a.’ means ‘not active’ (MIC > 100 μM)) | Minimum inhibitory concentration, S. aureus (MRSA) [3, 14]: n.a. (‘n.a.’ means ‘not active’ (MIC > 100 μM)) | Minimum inhibitory concentration, S. aureus [4, 14]: n.a. (‘n.a.’ means ‘not active’ (MIC > 100 μM)) | Minimum inhibitory concentration, P. aeruginosa [5]: n.a. (‘n.a.’ means ‘not active’ (MIC > 100 μM))

CC(C)C[C@@H]1NC(=O)[C@H](CCCCN)NC(=O)[C@H](C(C)C)NC(=O)[C@@H]2CCCN2C(=O)[C@@H](Cc2ccc(O)cc2)NC(=O)[C@H](CC(C)C)NC(=O)[C@H](CCCCN)NC(=O)[C@H](C(C)C)NC(=O)[C@@H]2CCCN2C(=O)[C@@H](Cc2ccc(O)cc2)NC1=O [GS(K2Y2), cyclo([Pro-Val-Lys-Leu-D-Tyr]2), reference compound] (cyclo(PVKL[dY]PVKL[dY]))
Minimum inhibitory concentration, B. subtilis [6]: 1.4 µM (≈ 1.68 µg/mL) | Minimum inhibitory concentration, S. aureus (MRSA) ([3]; ATCC 43300, 16 h): 2.8 µM (≈ 3.36 µg/mL) | Minimum inhibitory concentration, S. aureus ([4]; DSM 20231, 16 h): 1.4 µM (≈ 1.68 µg/mL) | Minimum inhibitory concentration, P. aeruginosa [5]: n.a. (‘n.a.’ means ‘not active’ (MIC > 100 μM))

CN[C@H](CC(C)C)C(=O)N[C@H]1C(=O)N[C@@H](CC(N)=O)C(=O)N[C@H]2C(=O)N[C@H]3C(=O)N[C@H](C(=O)N[C@H](C(=O)O)c4cc(O)cc(O)c4-c4cc3ccc4O)[C@H](O)c3ccc(c(Cl)c3)Oc3cc2cc(c3O[C@@H]2O[C@H](CO)[C@@H](O)[C@H](O)[C@H]2O[C@H]2C[C@](C)(N)[C@H](O)[C@H](C)O2)Oc2ccc(cc2Cl)[C@H]1O [vancomycin, reference compound]
MIC ([2]; Acinetobacter baumannii, DSM30007, read-out: Minimum inhibitory concentration, A. baumannii): 38 µM (≈ 55.1 µg/mL) | MIC ([6]; Bacillus subtilis, DSM402, read-out: Minimum inhibitory concentration, B. subtilis): 0.3 µM (≈ 0.435 µg/mL) | MIC ([3]; Staphylococcus aureus, ATCC43300|MRSA, read-out: Minimum inhibitory concentration, S. aureus (MRSA)): 0.6 µM (≈ 0.87 µg/mL) | MIC ([4]; Staphylococcus aureus, DSM20231, read-out: Minimum inhibitory concentration, S. aureus): 0.3 µM (≈ 0.435 µg/mL) | MIC ([5]; Pseudomonas aeruginosa, DSM50071, read-out: Minimum inhibitory concentration, P. aeruginosa): > 100 µM

Ac-RWRWRW-NH2 [Ac(RW)3, Ac-RWRWRW-NH2]
Minimum inhibitory concentration, E. coli ([1]; DSM 30083, 16 h): 45 µM | Minimum inhibitory concentration, B. subtilis [6]: 45 µM

N=C(N)NCCC[C@H](NC(=O)[C@H](Cc1c[nH]c2ccccc12)NC(=O)[C@H](CCCNC(=N)N)NC(=O)[C@H](Cc1c[nH]c2ccccc12)NC(=O)[C]12[CH]3[CH]4[CH]5[CH]1[Ru]45321678[CH]2[CH]1[CH]6[CH]7[CH]28)C(=O)N[C@@H](Cc1c[nH]c2ccccc12)C(N)=O (stereo partly drawn) [RcCO-W(RW)2] (X1-WRWRW-NH2)
hemolysis at 30 min, 192 µM (Hemolytic activity): 64%

N=C(N)NCCCC(N)C(=O)NC(Cc1c[nH]c2ccccc12)C(=O)NC(CCCNC(=N)N)C(=O)NC(Cc1c[nH]c2ccccc12)C(=O)NC(CCCNC(=N)N)C(=O)NC(Cc1c[nH]c2ccccc12)C(N)=O (stereo not drawn) [(RW)3] (H-RWRWRW-NH2; configuration not given here)
Minimum inhibitory concentration, E. coli ([1]; DSM 30083, 16 h): 21 µM (≈ 21.9 µg/mL) | Minimum inhibitory concentration, A. baumannii ([2]; DSM 30007, 16 h): 21 µM (≈ 21.9 µg/mL) | Minimum inhibitory concentration, B. subtilis [6]: 1.3 µM (≈ 1.36 µg/mL) | Minimum inhibitory concentration, S. aureus ([4]; DSM 20231, 16 h): 11 (11) µM | MIC, M. luteus (M. luteus): 0.6 ± 0.0 µg/mL (≈ 0.575 µM) | MIC, S. aureus (133) (S. aureus (133)): 2.1 ± 0.7 µg/mL (≈ 2.01 µM) | concentration up to which no significant destruction of erythrocytes [7]: up to 500 µg/mL | IC50 [8]: 159 ± 7 µM | IC50 [9]: 132 ± 12 µM | IC50 [10]: 143 ± 21 µM | IC50 [11]: ~140 µM | concentration of 50% hemolysis [12]: ~ 250 µM
